Structures can show the parent of a compound that is named as a salt.
Target: T1, human 11β-HSD1 enzyme (Homo sapiens, UniProt P28845)
T1 construct: stably transfected with a construct containing the full-length gene coding for the human 11β-HSD1 enzyme; expressed in transfected cells; host or cells: HEK293 (HEK293/11β-HSD1 cells)
Experiment: Cellular in vitro 11β-HSD1 enzyme inhibition assay (SPA, HEK293/11β-HSD1 cells)
Format: cell-based
Procedure: Cellular In Vitro 11β-HSD1 Enzyme Inhibition Assay
Compounds were assessed by a Scintillation Proximity Assay (SPA) performed according to the following protocol:
HEK293 cells were stably transfected with a construct containing the full-length gene coding for the human 11β-HSD1 enzyme to create HEK293/11β-HSD1 cells. Cells were routinely cultured in DMEM containing 10% calf foetal serum, 1% glutamine, and 1% penicillin and streptomycin. Prior to assay, cells were plated at 2×10^4 cells/well in 96-well poly-D-Lys coated flat-bottomed microplates and incubated in 5% CO2, 95% O2 at 37° C. for 24 hours. The media in each well was removed immediately before assay.
Compounds to be tested were dissolved in DMSO at 10 mM and serially diluted into water containing 10% DMSO. Diluted compounds at a volume of 10 μL were added to wells of a 96-well V-bottomed microplate. […] This solution (100 μL/well) was transferred to the plate containing the cells. The plate was then incubated in 5% CO2, 95% O2 at 37° C. for 2 hours.
Following this incubation, 50 μL of the assay solution was transferred to each well of a 96-well scintillation microplate. A mixture consisting of anti-mouse YSi SPA beads, pre-mixed with anti-cortisol antibody in assay buffer (50 mM Tris.HCl, pH 7.0; 300 mM NaCl; 1 mM EDTA, 5% glycerol) was prepared and 50 μL added to each well of the scintillation microplate. An adhesive strip was applied to the microplate and the plate gently shaken for at least 2 hours at room temperature, and then spun briefly on a low speed centrifuge. The plate was read on a scintillation counter suitable for 96-well microplates. For the calculation of percentage inhibition, a series of wells were added to the plate that represented the assay maximum and the assay minimum: one set that contained substrate without cells (mimimum) and another set that contained substrate and cells without any compound (maximum).
The calculation of median inhibitory concentration (IC50) values for the compounds was performed using GraphPad Prism® software. Dose-response curves for each compound were plotted as fractional inhibition and data fitted to the four parameter logistic equation.

[1] = HEK293, more than 1000 nM (1.0 μM) and less than or equal to 30 μM
[2] = HEK293, less than or equal to 1000 nM (1 μM)

T1 sequence (P28845 whole entry): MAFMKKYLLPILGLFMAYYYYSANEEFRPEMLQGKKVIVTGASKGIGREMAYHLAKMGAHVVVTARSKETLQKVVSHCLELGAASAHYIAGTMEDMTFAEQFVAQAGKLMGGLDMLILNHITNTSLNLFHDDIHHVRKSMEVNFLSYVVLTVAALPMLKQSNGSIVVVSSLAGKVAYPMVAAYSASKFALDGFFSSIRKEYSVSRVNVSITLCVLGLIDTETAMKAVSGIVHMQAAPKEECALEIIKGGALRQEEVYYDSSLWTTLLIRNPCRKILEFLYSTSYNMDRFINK

| IC50 [1] [nM] | IC50 [2] [nM] | Structure (SMILES) |
| --- | --- | --- |
| 1000 to 30000 |  | CN1CCC(c2cc(C(=O)N3CCC[C@@H]4CCCC[C@@H]43)cs2)CC1 (relative stereo) [CC-038, cis-[5-(1-Methyl-piperidin-4-yl)-thiophen-3-yl]-(octahydro-quinolin-1-yl)-methanone] |
|  | ≤ 1000 | CC1(C)CCCN(C(=O)c2csc(C3CCCCC3)c2)C1 [DD-001] |
|  | ≤ 1000 | CC1(C)CC2CC(C)(CN2C(=O)c2csc(C3CCOCC3)c2)C1 (stereo not shown) [CC-069] |
|  | ≤ 1000 | O=C(c1csc(C2CCNCC2)c1)N1CCC[C@@H]2CCCC[C@@H]21 (single isomer, unassigned) [CC-159, cis-(octahydro-quinolin-1-yl)-(5-piperidin-4-yl-thiophen-3-yl)-methanone] |
|  | ≤ 1000 | COC(=O)N1CCC(c2cc(C(=O)N3CCC[C@@H]4CCCC[C@@H]43)cs2)CC1 (relative stereo) [CC-066, cis-4-[4-(Octahydro-quinoline-1-carbonyl)-thiophen-2-yl]-piperidine-1-carboxylic acid methyl ester] |
|  | ≤ 1000 | CC(=O)N1CCC(c2cc(C(=O)N3CCC[C@@H]4CCCC[C@@H]43)cs2)CC1 (relative stereo) [CC-035, cis-1-{4-[4-(Octahydro-quinoline-1-carbonyl)-thiophen-2-yl]-piperidin-1-yl}-ethanone] |
| 1000 to 30000 |  | O=C(c1csc(C2CCNCC2)c1)N1CCCC1c1ccccc1 (stereo not shown) [CC-020] |
| 1000 to 30000 |  | C[C@@H]1CN(C(=O)c2csc(C3CCNCC3)c2)C[C@H](C)O1 [CC-019] |
|  | ≤ 1000 | O=C(c1csc(C2CCOCC2)c1)N1CCC[C@@H]2CCCC[C@@H]21 (single isomer, unassigned) [CC-140, cis-(octahydro-quinolin-1-yl)-[5-(tetrahydro-pyran-4-yl)-thiophen-3-yl]-methanone] |
|  | ≤ 1000 | O=C(c1cc(C2CCOCC2)sc1Cl)N1CCCC2CCCCC21 (stereo not shown) [CC-030] |
|  | ≤ 1000 | O=C(c1csc(C2CCSCC2)c1)N1CCCC2CCCCC21 (stereo not shown) [CC-136] |
| 1000 to 30000 |  | CC(=O)N1CCC(c2cc(C(=O)N3CCN4CCCCC4C3)cs2)CC1 (stereo not shown) [CC-037] |
|  | ≤ 1000 | O=C(c1csc(C2CCNC2)c1)N1CCC[C@@H]2CCCC[C@@H]21 (relative stereo) [CC-177, cis-(Octahydro-quinolin-1-yl)-(5-pyrrolidin-3-yl-thiophen-3-yl)-methanone] |
|  | ≤ 1000 | O=C(Cc1cccnc1)N1CCC(c2cc(C(=O)N3CCCC4CCCCC43)cs2)CC1 (stereo not shown) [CC-134] |
|  | ≤ 1000 | CC1(C)CCCN(C(=O)c2csc(C3CCN(C(C)(C)C(N)=O)CC3)c2)CC1 [CC-137] |
|  | ≤ 1000 | O=C(c1csc(C2CCOCC2)c1)N1CCCC2CCCCC21 (stereo not shown) [CC-028] |
|  | ≤ 1000 | CCc1cc(C(=O)N2CCCC3CCCCC32)cs1 (stereo not shown) [AA-009] |
| 1000 to 30000 |  | O=C(c1csc(C2CCN(S(=O)(=O)c3ccccc3)CC2)c1)N1CCCC2CCCCC21 (stereo not shown) [CC-092] |
|  | ≤ 1000 | CC(C)(C(N)=O)N1CCC(c2cc(C(=O)N3CCCC4CCCCC43)cs2)CC1 (stereo not shown) [CC-174] |
|  | ≤ 1000 | NC(=O)N1CCC(c2cc(C(=O)N3CCCC4CCCCC43)cs2)CC1 (stereo not shown) [CC-144] |

| IC50 [1] [nM] | IC50 [2] [nM] | Structure (SMILES) |
| --- | --- | --- |
| 1000 to 30000 |  | O=C(c1ccccc1)N1CCC(c2cc(C(=O)N3CCCC4CCCCC43)cs2)CC1 (stereo not shown) [CC-110] |
| 1000 to 30000 |  | CC(=O)N1CCC(c2cc(C(=O)N3CCCC4CCCCC43)cs2)CC1 (stereo not shown) [CC-036] |
| 1000 to 30000 |  | CN(C)CC(=O)N1CCC(c2cc(C(=O)N3CCCC4CCCCC43)cs2)CC1 (stereo not shown) [CC-063] |
|  | ≤ 1000 | CC1(C)CCCN(C(=O)c2csc(C3CCN(C(=O)CCNS(C)(=O)=O)CC3)c2)CC1 [CC-097] |
|  | ≤ 1000 | CCc1cc(C(=O)N2CCCCCC2)c(Cl)s1 [AA-004] |
| 1000 to 30000 |  | O=C(c1csc(C2CCNCC2)c1)N1CCC[C@@H]2CCCC[C@@H]21 (single isomer, unassigned) [CC-039, cis-(octahydro-quinolin-1-yl)-(5-piperidin-4-yl-thiophen-3-yl)-methanone] |
| 1000 to 30000 |  | Cn1cc(CN2CCC(c3cc(C(=O)N4CCC[C@@H]5CCCC[C@@H]54)cs3)CC2)cn1 (racemic) [CC-152, cis-1-(1-Methyl-1H-pyrazol-4-ylmethyl)-4-[4-(octahydro-quinoline-1-carbonyl)-thiophen-2-yl]-piperidinium formate] |
| 1000 to 30000 |  | CC1(C)CCCN(C(=O)c2csc(C3CCN(C(=O)c4ccno4)CC3)c2)CC1 [CC-095] |
| 1000 to 30000 |  | O=C(OCc1ccccc1)N1CCC(c2cc(C(=O)N3CCCC4(CCCCC4)C3)cs2)CC1 [CC-078] |
|  | ≤ 1000 | CC1(C)CC2CC(C)(CN2C(=O)c2csc(C3CCCNC3)c2)C1 (stereo not shown) [CC-073] |
|  | ≤ 1000 | CS(=O)(=O)NCCC(=O)N1CC=C(c2cc(C(=O)N3CCCC4CCCCC43)cs2)CC1 (stereo not shown) [CC-091] |
|  | ≤ 1000 | O=C(c1csc(C2CCNCC2)c1)N1CCCCC1c1ccccc1 (single isomer, unassigned) [CC-130, cis-(2-Phenyl-piperidin-1-yl)-(5-piperidin-4-yl-thiophen-3-yl) methanone] |
| 1000 to 30000 |  | O=C(c1csc(C2CCCNC2)c1)N1CCCC2(CCCCC2)C1 (stereo not shown) [CC-080] |
|  | ≤ 1000 | O=C1COCCN1c1cc(C(=O)N2CCCC3CCCCC32)cs1 (stereo not shown) [CC-050] |
|  | ≤ 1000 | CS(=O)(=O)N1CCC(c2cc(C(=O)N3CCC[C@@H]4CCCC[C@@H]43)cs2)CC1 (relative stereo) [CC-065, cis-[5-(1-Methanesulfonyl-piperidin-4-yl)-thiophen-3-yl]-(octahydro-quinolin-1-yl)-methanone] |
|  | ≤ 1000 | CC(=O)N1CCC(c2cc(C(=O)N3CCCC(C)(C)CC3)cs2)CC1 |
| 1000 to 30000 |  | COCCCN1CCC(c2cc(C(=O)N3CCCC4CCCCC43)cs2)CC1 (stereo not shown) [CC-089] |
| 1000 to 30000 |  | CC1(C)CCCN(C(=O)c2csc(C3CCN(S(C)(=O)=O)CC3)c2)CC1 [CC-096] |
|  | ≤ 1000 | CC(=O)N1CC=C(c2cc(C(=O)N3CCCC4CCCCC43)cs2)CC1 (stereo not shown) [CC-086] |
| 1000 to 30000 |  | O=C(c1csc(C2CCNCC2)c1)N1CCC[C@@H]2CCCC[C@H]21 (relative stereo) [CC-034, trans-(Octahydro-quinolin-1-yl)-(5-piperidin-4-yl-thiophen-3-yl)-methanone] |

| IC50 [1] [nM] | IC50 [2] [nM] | Structure (SMILES) |
| --- | --- | --- |
| 1000 to 30000 |  | O=C(c1csc(C2CCNCC2)c1)N1CCCC(c2ccccc2)C1 (stereo not shown) [CC-018] |
| 1000 to 30000 |  | O=C(CCCN1CCCCC1)N1CCC(c2cc(C(=O)N3CCCC4CCCCC43)cs2)CC1 (stereo not shown) [CC-082] |
|  | ≤ 1000 | CS(=O)(=O)NCC(=O)N1CCC(c2cc(C(=O)N3CCCC4CCCCC43)cs2)CC1 (stereo not shown) [CC-148] |
| 1000 to 30000 |  | O=C(c1csc(C2CCN(CCS(=O)(=O)N3CCCC3)CC2)c1)N1CCCC2CCCCC21 (stereo not shown) [CC-087] |
|  | ≤ 1000 | O=C(c1csc(C2CCOCC2)c1)N1CCCCCC1 [CC-004] |
| 1000 to 30000 |  | CC1(C)CCCN(C(=O)c2csc(C3CCCNC3)c2)C1 (stereo not shown) [CC-014] |
| 1000 to 30000 |  | CC1(C)CCCN(C(=O)c2csc(N3CCOCC3)c2)C1 [CC-010, (3,3-Dimethyl-piperidin-1-yl)-(5-morpholin-4-yl-thiophen-3-yl)-methanone] |
| 1000 to 30000 |  | O=C(c1csc(C2CCNCC2)c1)N1CCCCCC1 [CC-008, Azepan-1-yl-(5-piperidin-4-yl-thiophen-3-yl)-methanone] |
|  | ≤ 1000 | O=C(CCc1ccncc1)N1CCC(c2cc(C(=O)N3CCCC4CCCCC43)cs2)CC1 (stereo not shown) [CC-149] |
|  | ≤ 1000 | CCc1cc(C(=O)N2CCCCC2c2ccccc2)cs1 (stereo not shown) [AA-021] |
|  | ≤ 1000 | CCc1cc(C(=O)N2CCCC3CCCCC32)c(Cl)s1 (stereo not shown) [AA-013] |
| 1000 to 30000 |  | CC1(C)CCCN(C(=O)c2csc(C3CCNCC3)c2)CC1 [CC-023, (4,4-dimethyl-azepan-1-yl)-(5-piperidin-4-yl-thiophen-3-yl)-methanone] |
| 1000 to 30000 |  | O=C(CO)N1CCC(c2cc(C(=O)N3CCCCC3c3ccccc3)cs2)CC1 (stereo not shown) [CC-102] |
|  | ≤ 1000 | O=C(CO)N1CCC(c2cc(C(=O)N3CCCC4CCCCC43)cs2)CC1 (stereo not shown) [CC-054] |
| 1000 to 30000 |  | O=C(c1csc(C2CCNCC2)c1)N1CCCCC1c1ccc(F)cc1 (stereo not shown) [CC-112] |
| 1000 to 30000 |  | O=C(c1ccno1)N1CCC(c2cc(C(=O)N3CCCC4CCCCC43)cs2)CC1 (stereo not shown) [CC-052] |
| 1000 to 30000 |  | O=C(c1csc(C2CCCCC2)c1)N1CCCC2CCCCC21 (stereo not shown) [DD-003] |
|  | ≤ 1000 | O=C(c1csc(C2CCS(=O)(=O)CC2)c1)N1CCC[C@@H]2CCCC[C@@H]21 (racemic) [CC-138, cis-[5-(1,1-Dioxo-hexahydro-thiopyran-4-yl)-thiophen-3-yl]-(octahydro-quinolin-1-yl)methanone] |

| Structure (SMILES) | IC50 [1] [nM] | IC50 [2] [nM] |
| --- | --- | --- |
| CC1(C)CCCN(C(=O)c2csc(C3=CCNCC3)c2)CC1 [CC-124] | 1000 to 30000 |  |
| CCCCCc1cc(C(=O)N2CCCC3CCCCC32)cs1 (stereo not shown) [AA-011] |  | ≤ 1000 |
| CC(C)(C)C(=O)N1CCC(c2cc(C(=O)N3CCCC4CCCCC43)cs2)CC1 (stereo not shown) [CC-100] | 1000 to 30000 |  |
